Key:
[1] = biological target: PKR(R510Q) (Homo sapiens, UniProt P30613, R510Q); test: Luminescence Biochemical Assay (Kinase Glo Plus), PKR R510Q mutant; details: without FBP; for activation at 1.54 µM: 1.54 μM compound, read-out: AC50 LUM KGP woFBP % Fold@1.54 μM mean; for AC50: read-out: AC50 LUM KGP woFBP AC50 μM gmean; for Emax: read-out: AC50 LUM KGP woFBP MAX % FOLD mean
[2] = biological target: PKR(G332S) (Homo sapiens, UniProt P30613, G332S); test: Luminescence Biochemical Assay (Kinase Glo Plus), PKR G332S mutant; details: with FBP; for activation at 1.54 µM: 1.54 μM compound, read-out: AC50 LUM KGP FBP % Fold@1.54 μM mean; for AC50: read-out: AC50 LUM KGP FBP AC50 μM gmean (column A); for Emax: read-out: AC50 LUM KGP FBP MAX % FOLD mean
Description: In some embodiments, a PKR Activating Compound can have: (1) an AC50 value of less than 0.1 μM (e.g., compounds with AC50 values of “+++” in Table 13), 0.1-1.0 μM (e.g., compounds with AC50 values of “++” in Table 13), or 1.01-40 μM (e.g., compounds with AC50 values of “+” in Table 13); (2) a MAX % Fold of 75%-250%, 250-500%, or 75%-500%; and/or (3) a % Fold@1.54 μM of 75%-250%, 250-500%, or 75%-500%. In some embodiments, a PKR Activating Compound has (1) an AC50 value of less than 1.0 μM; (2) a MAX % Fold of 75%-500%; and/or (3) a % Fold@1.54 μM of 75%-500%.
The phosphorylation of Adenosine-5′-diphosphate (ADP) by various mutants of PKR was determined by the Kinase Glo Plus Assay (Promega) in the presence or absence of FBP [D-Fructose-1,6-diphosphate; BOC Sciences, CAS: 81028-91-3] as follows. Unless otherwise indicated, all reagents were purchased from Sigma-Aldrich. All reagents were prepared in buffer containing 50 mM Tris-HCl, 100 mM KCl, 5 mM MgCl2, and 0.01% Triton X100, 0.03% BSA, and 1 mM DTT. Enzyme and PEP [Phospho(enol) pyruvic acid] were added at 2× to all wells of an assay-ready plate containing serial dilutions of test compounds or DMSO vehicle. Final enzyme concentrations for PKR(wt), PKR(R510Q), and PKR(G332S) were 0.8 nM, 0.8 nM, and 10 nM respectively. Final PEP concentration was 100 μM. The Enzyme/PEP mixture was incubated with compounds for 30 minutes at RT before the assay was initiated with the addition of 2×ADP [Adenosine-5′-diphosphate] and KinaseGloPlus. Final concentration of ADP was 100 μM. […] For assays containing FBP, that reagent is added at 30 μM upon reaction initiation. Reactions were allowed to progress for 45 minutes at RT until luminescence was recorded by the BMG PHERAstar FS Multilabel Reader. All compounds were tested in triplicate at concentrations ranging from 42.5 μM to 2.2 nM in 0.83% DMSO.
Luminescence values were converted to % Fold increase by normalizing to the average of the DMSO control and multiplying by 100. Max, min, slope and AC50 were determined by the standard four parameter fit algorithm of ActivityBase XE Runner. Compounds were evaluated with three parameters—AC50, MAX % Fold, and % Fold@1.54 μM (FIG. 1). The AC50 value for a compound is the concentration (μM) corresponding to the midway between the maximum and minimum values of the four parameter logistic curve fit (i.e., at which the % fold increase along the four parameter logistic curve fit is halfway between MAX % Fold and MIN % Fold (% Fold Midpoint)), MAX % Fold is the highest fold increase observed at any concentration of compound, and % Fold@1.54 μM is the fold increase at a compound concentration of 1.54 μM. The parameter % Fold@1.54 μM was selected to capture elements of both the AC50 and MAX % Fold and to provide a ranking based on both potency and effect. The compound concentration of 1.54 μM was chosen as one that can optimally differentiate the set of compounds based on the range of activities observed.
As set forth in Table 13 below, AC50 values (columns A, D, G) are defined as follows: ≤0.1 μM (+++); >0.1 μM and ≤1.0 μM (++); >1.0 μM and ≤40 μM (+); >40 μM (0). Max % FOLD values (columns B, E, H) are defined as follows: ≤75% (+); >75% and ≤250% (++); >250% and ≤500% (+++). % Fold@1.54 μM values (columns C, F, J) are defined as follows: ≤75% (+); >75% and ≤250% (++); >250% and ≤50000 (+++).

[3] = biological target: PKR(wt) (Homo sapiens, UniProt P30613); test: Luminescence Biochemical Assay (Kinase Glo Plus), wild type PKR; details: without FBP; for activation at 1.54 µM: 1.54 μM compound, read-out: AC50 LUM KGP woFBP % Fold@1.54 μM mean; for AC50: read-out: AC50 LUM KGP woFBP AC50 μM gmean; for Emax: read-out: AC50 LUM KGP woFBP MAX % FOLD mean
Chain of PKR(wt) (P30613 whole entry): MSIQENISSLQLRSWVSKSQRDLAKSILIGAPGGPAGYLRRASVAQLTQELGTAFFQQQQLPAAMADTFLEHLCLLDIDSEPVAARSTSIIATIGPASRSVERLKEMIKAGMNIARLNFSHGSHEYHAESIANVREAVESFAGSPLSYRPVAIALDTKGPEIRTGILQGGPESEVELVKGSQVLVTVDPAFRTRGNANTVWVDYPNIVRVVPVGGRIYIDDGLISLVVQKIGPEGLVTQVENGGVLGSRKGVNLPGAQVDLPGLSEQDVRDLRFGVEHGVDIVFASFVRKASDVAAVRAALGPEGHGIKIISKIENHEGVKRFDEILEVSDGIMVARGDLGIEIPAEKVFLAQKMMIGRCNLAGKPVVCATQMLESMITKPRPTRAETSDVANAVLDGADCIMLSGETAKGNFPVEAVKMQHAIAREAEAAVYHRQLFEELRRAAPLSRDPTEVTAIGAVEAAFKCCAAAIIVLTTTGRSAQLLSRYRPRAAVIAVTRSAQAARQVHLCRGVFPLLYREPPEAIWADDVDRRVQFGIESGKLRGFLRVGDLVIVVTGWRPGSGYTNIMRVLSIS

Chain of PKR(G332S) (P30613 whole entry G332S): as the sequence (P30613 whole entry) above, with G332S counted along it
Chain of PKR(R510Q) (P30613 whole entry R510Q): as the sequence (P30613 whole entry) above, with R510Q counted along it

Compound | activation at 1.54 µM [1] [%] | AC50 [1] [µM] | Emax [1] [%] | activation at 1.54 µM [2] [%] | AC50 [2] [µM] | Emax [2] [%] | activation at 1.54 µM [3] [%] | AC50 [3] [µM] | Emax [3] [%]
Cc1nn(C)c(Cl)c1S(=O)(=O)N1CC2=C(CN(C(=O)[C@H](O)c3ccccc3)C2)C1 [Example 18-43, (2R)-1-{5-[(5-chloro-1,3-dimethyl-1H-pyrazol-4-yl)sulfonyl]-1H,2H,3H,4H,5H,6H-pyrrolo[3,4-c]pyrrol-2-yl}-2-hydroxy-2-phenylethan-1-one] | 75 to 250 | 1 to 40 | 75 to 250 | 75 to 250 | 1 to 40 | 75 to 250 | 75 to 250 | 1 to 40 | 75 to 250
O=C(Cn1cccn1)N1CC2=C(C1)CN(S(=O)(=O)c1ccc(OC(F)F)cc1)C2 [Example 18-21, 1-{5-[4-(Difluoromethoxy)benzenesulfonyl]-1H,2H,3H,4H,5H,6H-pyrrolo[3,4-c]pyrrol-2-yl}-2-(1H-pyrazol-1-yl)ethan-1-one] | 75 to 250 | 1 to 40 | 250 to 500 | 75 to 250 | 0.1 to 1 | 75 to 250 | 75 to 250 | 1 to 40 | 250 to 500
COc1ccc(CNC(=O)N2CC3=C(C2)CN(S(=O)(=O)c2ccc4ncsc4c2)C3)cc1 [Example 21-16, 5-(1,3-Benzothiazole-6-sulfonyl)-N-[(4-methoxyphenyl)methyl]-1H,2H,3H,4H,5H,6H-pyrrolo[3,4-c]pyrrole-2-carboxamide] | 250 to 50000 | 0.1 to 1 | 250 to 500 | 75 to 250 | ≤ 0.1 | 75 to 250 | 250 to 50000 | ≤ 0.1 | 250 to 500
O=C(Cc1ncccn1)N1CC2=C(C1)CN(S(=O)(=O)c1ccc(OC(F)F)cc1)C2 [Example 18-28, 1-{5-[4-(Difluoromethoxy)benzenesulfonyl]-1H,2H,3H,4H,5H,6H-pyrrolo[3,4-c]pyrrol-2-yl}-2-(pyrimidin-2-yl)ethan-1-one] | 250 to 50000 | 1 to 40 | 250 to 500 | 75 to 250 | 0.1 to 1 | 75 to 250 | 250 to 50000 | 1 to 40 | 250 to 500
O=C(N1CC2=C(C1)CN(S(=O)(=O)c1ccccn1)C2)C1(O)CC1 [Example 18-65, 1-[5-(Pyridine-2-sulfonyl)-1H,2H,3H,4H,5H,6H-pyrrolo[3,4-c]pyrrole-2-carbonyl]cyclopropan-1-ol] | 75 to 250 | 1 to 40 | 75 to 250 | 75 to 250 | 1 to 40 | 75 to 250 | 75 to 250 | 1 to 40 | 250 to 500
CN1CCOc2ccc([C@@H](O)C(=O)N3CC4=C(C3)CN(S(=O)(=O)c3ccc(OC(F)F)cc3)C4)cc21 (single isomer, unassigned) [Example 10-1] | 75 to 250 | 1 to 40 | 250 to 500 | 75 to 250 | 0.1 to 1 | 75 to 250 | 75 to 250 | 1 to 40 | 250 to 500
Cc1nc(CC(=O)N2CC3=C(C2)CN(S(=O)(=O)c2ccc(OC(F)F)cc2)C3)cs1 [Example 18-20, 1-{5-[4-(Difluoromethoxy)benzene-sulfonyl]-1H,2H,3H,4H,5H,6H-pyrrolo[3,4-c]pyrrol-2-yl}-2-(2-methyl-1,3-thiazol-4-yl)ethan-1-one] | 75 to 250 | 1 to 40 | 250 to 500 | 75 to 250 | 1 to 40 | 75 to 250 | 250 to 50000 | 0.1 to 1 | 250 to 500
Cc1ccc(CC(=O)N2CC3=C(C2)CN(S(=O)(=O)c2ccc(OC(F)F)cc2)C3)cn1 [Example 18-30, 1-{5-[4-(Difluoromethoxy)benzenesulfonyl]-1H,2H,3H,4H,5H,6H-pyrrolo[3,4-c]pyrrol-2-yl}-2-(6-methylpyridin-3-yl)ethan-1-one] | 250 to 50000 | 0.1 to 1 | 250 to 500 | 75 to 250 | ≤ 0.1 | 75 to 250 | 250 to 50000 | 0.1 to 1 | 250 to 500
O=C(C(F)c1ccccc1)N1CC2=C(C1)CN(S(=O)(=O)c1ccc(OC(F)F)cc1)C2 (stereo not drawn) [Example 18-24, 1-{5-[4-(Difluoromethoxy)benzenesulfonyl]-1H,2H,3H,4H,5H,6H-pyrrolo[3,4-c]pyrrol-2-yl}-2-fluoro-2-phenylethan-1-one] | 250 to 50000 | ≤ 0.1 | 250 to 500 | 75 to 250 | ≤ 0.1 | 75 to 250 | 250 to 50000 | 0.1 to 1 | 250 to 500
COc1ccc(CNC(=O)N2CC3=C(C2)CN(S(=O)(=O)c2ccc(OC(F)F)cc2)C3)cc1 [Example 21-10, 5-[4-(Difluoromethoxy)benzenesulfonyl]-N-[(4-methoxyphenyl)methyl]-1H,2H,3H,4H,5H,6H-pyrrolo[3,4-c]pyrrole-2-carboxamide] | 250 to 50000 | ≤ 0.1 | 250 to 500 | 75 to 250 | ≤ 0.1 | 75 to 250 | 250 to 50000 | ≤ 0.1 | 250 to 500
Cc1cccc(S(=O)(=O)N2CC3=C(CN(C(=O)NCc4ccccc4F)C3)C2)n1 [Example 15-1, N-[(2-fluorophenyl)methyl]-5-(6-methylpyridine-2-sulfonyl)-1H,2H,3H,4H,5H,6H-pyrrolo[3,4-c]pyrrole-2-carboxamide] | 250 to 50000 | ≤ 0.1 | 250 to 500 | 75 to 250 | 0.1 to 1 | 75 to 250 | 250 to 50000 | ≤ 0.1 | 250 to 500
CC(C)Oc1ccc(S(=O)(=O)N2CC3=C(CN(C(=O)[C@H](O)c4ccccc4)C3)C2)cc1 [Example 18-12, (2R)-2-hydroxy-2-phenyl-1-{5-[4-(propan-2-yloxy)benzenesulfonyl]-1H,2H,3H,4H,5H,6H-pyrrolo[3,4-c]pyrrol-2-yl}ethan-1-one] | 75 to 250 | 1 to 40 | 250 to 500 | 75 to 250 | 0.1 to 1 | 75 to 250 | 75 to 250 | 0.1 to 1 | 75 to 250
COc1cccc(CNC(=O)N2CC3=C(C2)CN(S(=O)(=O)c2ccc(OC(F)F)cc2)C3)c1 [Example 21-11, 5-[4-(Difluoromethoxy)benzenesulfonyl]-N-[(3-methoxyphenyl)methyl]-1H,2H,3H,4H,5H,6H-pyrrolo[3,4-c]pyrrole-2-carboxamide] | 250 to 50000 | ≤ 0.1 | 250 to 500 | 75 to 250 | ≤ 0.1 | 75 to 250 | 250 to 50000 | ≤ 0.1 | 250 to 500
